Data reported in patent publication US10117950B2, “Compounds and compositions for the treatment of ocular disorders” (Graybug Vision, Inc., priority 2015, dated 2018).
Where two headings read alike, the source gives them in different places.

Assays:
[1] = Determination of drug solubility; format: physicochemical; conditions: for solubility: thermodynamic from solid
Description: For each test, approximately 5-10 mg was transferred to a 10 mL glass vial. Aqueous or organic solvent was added to each vial to achieve an overall concentration of 50 mg/mL. After vortexing aggressively for 2-3 minutes and sonicating in a bath sonicator for 5 minutes, undissolved drug was spun down at 1200 rpm for 5 minutes to generate a pellet. The supernatant was collected and filtered through a 0.2 μm nylon syringe filter into HPLC vials for drug content analysis. Drug concentration was determined by comparing against a standard calibration curve.

[2] = In vitro stability of bifunctional conjugates (HPLC, 254 nm); format: physicochemical; conditions: PBS pH 7.0, 20% DMSO; one day
Description: Briefly, brinzolamide-PLA (n=4)-succinate-5-hydroxy-sunitinib (60-1) or dorzolamide-PLA (n=4)-succinate-5-hydroxy-sunitinib (58-5) was first dissolved in a solution of PBS (pH 7.0) with 20% DMSO (v/v) and incubated at 37° C. or 60° C. for 14 days.

[3] = target: T1, bovine erythrocyte carbonic anhydrase II (Bos taurus, UniProt P00921); assay: Carbonic anhydrase II inhibition, colorimetric 4-nitrophenyl acetate hydrolysis; format: biochemical
T1 construct: purified bovine erythrocyte carbonic anhydrase II; from tissue; host or cells: bovine erythrocytes
Description: The catalytic activity of carbonic anhydrase II was assessed by a colorimetric method, in which 4-nitrophenyl acetate is hydrolyzed to acetate and nitrophenolate. The nitrophenolate ionizes to generate a bright yellow anion that is readily detected by measuring its absorbance at 350-400 nm. […] Acetazolamide was added as a positive control and 100% DMSO was added as a negative control. The reaction was initiated with the addition of 20 μL of 4-nitrophenyl acetate (0.7 mM in ethanol).

[4] = In vitro stability of latanoprost NCEs (RP-HPLC); format: physicochemical; conditions: PBS pH 7.0, 20% DMSO, 37° C., 14 days
Description: Latanoprost and latanoprost-PLA conjugates were solubilized with the addition of 20% (v/v) DMSO and subsequently suspended to a concentration of 1 mg/mL in PBS (pH 7.0).

[5] = DMSO, organic solvent or mixture, read-out: Solubility DMSO
[6] = water / aqueous solvent, read-out: Solubility Water

T1 sequence (P00921 whole entry): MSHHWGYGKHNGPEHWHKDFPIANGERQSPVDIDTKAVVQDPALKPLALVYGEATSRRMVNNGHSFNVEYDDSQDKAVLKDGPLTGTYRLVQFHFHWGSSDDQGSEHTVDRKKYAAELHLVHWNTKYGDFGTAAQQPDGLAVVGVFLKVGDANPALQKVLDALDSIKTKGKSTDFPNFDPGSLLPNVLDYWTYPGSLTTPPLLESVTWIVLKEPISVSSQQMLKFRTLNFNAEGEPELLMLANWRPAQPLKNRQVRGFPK

| SMILES | solubility [1, 5] | solubility [1, 6] | degradation kinetics [2] | carbonic anhydrase inhibitory activity [3] | IC50 ([3]; n = 2) | solubility ([1]; DCM, organic solvent or mixture, read-out: Solubility DCM) | solubility ([1]; organic solvent (not named), organic solvent or mixture, organic solvent, read-out: organic solubility) | Solubility Water ([1]; water / aqueous solvent) | in vitro stability [4] |
| --- | --- | --- | --- | --- | --- | --- | --- | --- | --- |
| CCN[C@H]1C[C@H](C)S(=O)(=O)c2sc(S(=O)(=O)NC(=O)[C@H](C)OC(=O)[C@H](C)OC(=O)[C@H](C)OC(=O)[C@H](C)OC(=O)CCC(=O)Oc3ccc4c(c3)/C(=C/c3[nH]c(C)c(C(=O)NCCN(CC)CC)c3C)C(=O)N4)cc21 [58-5, dorzolamide-PLA(n=4)-succinate-5-hydroxy-Sunitinib] | > 50 mg/mL | < 1 mg/mL | rapidly decreasing after one day | lowest inhibitory activity | 222 ± 36.3 nM |  |  |  |  |
| CC(C)OC(=O)CCC/C=C\C[C@@H]1[C@@H](CC[C@@H](O)CCc2ccccc2)[C@H](O)C[C@@H]1O [Latanoprost, latanoprost, reference compound] | > 50 mg/mL | < 1 mg/mL |  |  |  | > 50 mg/mL | > 50 mg/mL | very low aqueous solubility | good stability |
